In BindingDB's records for doi:10.1016/j.ejmech.2023.115542 (University of Turin, 2023):

Test: Inhibition of NLRP3-dependent pyroptosis in PMA-differentiated human THP-1 cells assessed as inhibition of LPS/ATP-induced cell death pretreated for 4 hrs with LPS followed by incubation with compound for 1 hr and later treated with ATP for 1.5 hrs by LDH assay

Work on CCOC(=O)Cn1nc(Cc2ccccc2Cl)oc1=O yielded an IC50 of 1.55 µM.
